How the values were obtained:
Format in all cases: cell-based
SW480 colon cancer cells = assay: Cell viability assay (CellTiter-Blue) in SW480 colon cancer cells; details: Homo sapiens, 96 h, four days; for inhibition at 10 µM: given where EC50 >10 μM, read-out: percent inhibition at 10 μM; for EC50: CellTiter-Blue
Summary of the method: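 Resazurin reduction (Ex 560/Em 590 nm, ~3 h reagent incubation) served as the viability read-out after SW480 cells were treated for four days at 37 °C. Doses ran from 10 μM down to 0.0045 μM in eight 1:3 steps. Curves fitted non-linearly for EC50, else % inhibition at 10 μM reported.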

[1] = test system: Primary human fibroblasts derived from IPF patients (LL29 cells) treated with TGF-β1; assay: Inhibition of the fibrotic process: αSMA staining in TGF-β1-treated primary human fibroblasts from IPF patients (LL29 cells); details: Fibroblast, 96 h; for EC50: % αSMA-positive LL29 cells, TGF-β1 20 ng/mL, 4 days; for inhibition at 10 µM: given where EC50 >10 μM, αSMA, LL29 cells, TGF-β1, 4 days, read-out: percent inhibition at 10 μM
Summary of the method: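 LL29 IPF-patient fibroblasts in 1% FBS stimulated with TGF-β1 (20 ng/mL) and compound (10 μM–1.87 nM, 0.1% DMSO) for 4 days at 37 °C. SYTOX-positive cells excluded; % αSMA-positive cells imaged, normalized to TGF-β1/DMSO wells; EC50 by nonlinear regression, else % inhibition at 10 μM.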

IL-6 = assay: Inhibition of IL-6 in LPS-stimulated THP-1 human monocyte cells (HTRF); details: for EC50: IL-6 inhibition, LPS-stimulated THP-1 cells, HTRF; for inhibition at 10 µM: THP-1, printed beside >10 μM EC50, top concentration 10 μM, meaning not given, read-out: percentage in parentheses after EC50 >10
Summary of the method: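 THP-1 cells serum-reduced (1% FBS, 24 h), then 5000 cells/well preincubated 2 h with compound (10-point 1:3 series from 10 μM, 0.1% DMSO) before 500 ng/mL LPS for 22 h at 37 °C. Secreted IL-6 quantified by HTRF 665/620 ratio; DMSO-normalised duplicates fitted to four-parameter EC50; above 10 μM, % inhibition at 10 μM given.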

Compound	inhibition at 10 µM (SW480 colon cancer cells)	EC50 (SW480 colon cancer cells)	EC50 [1]	EC50 (IL-6)	inhibition at 10 µM [1]	inhibition at 10 µM (IL-6)
CCC(=O)Nc1cncc(-c2ccc3[nH]nc(-c4cc5c(-c6cccc(F)c6)cccc5[nH]4)c3c2)c1 [Compound 1, N-(5-(3-(4-(3-Fluorophenyl)-1H-indol-2-yl)-1H-indazol-5-yl)pyridin-3-yl) propionamide]	13.3%	> 10 µM	5.19 µM	4.57 µM		
Fc1cccc(-c2cccc3[nH]c(-c4n[nH]c5ccc(-c6cccnc6)cc45)cc23)c1 [Compound 4, 3-(4-(3-Fluorophenyl)-1H-indol-2-yl)-5-(pyridin-3-yl)-1H-indazole]	3.7%	> 10 µM	> 10 µM	0.058 µM	10.4%	
CN(C)Cc1cncc(-c2ccc3[nH]nc(-c4cc5c(-c6cccc(F)c6)cccc5[nH]4)c3c2)c1 [Compound 13, 1-(5-(3-(4-(3-Fluorophenyl)-1H-indol-2-yl)-1H-indazol-5-yl)pyridin-3-yl)-N,N-dimethylmethanamine]		0.494 µM	0.302 µM	0.036 µM		
CCCC(=O)Nc1cncc(-c2ccc3[nH]nc(-c4cc5c(-c6cccc(F)c6)cccc5[nH]4)c3c2)c1 [Compound 17, N-(5-(3-(4-(3-Fluorophenyl)-1H-indol-2-yl)-1H-indazol-5-yl)pyridin-3-yl) butyramide]	12.9%	> 10 µM	> 10 µM	> 10 µM	0%	24.7%
O=C(Nc1cncc(-c2ccc3[nH]nc(-c4cc5c(-c6cccc(F)c6)cccc5[nH]4)c3c2)c1)C1CC1 [Compound 20, N-(5-(3-(4-(3-Fluorophenyl)-1H-indol-2-yl)-1H-indazol-5-yl)pyridin-3-yl) cyclopropanecarboxamide]	15.6%	> 10 µM	4.55 µM	> 10 µM		44.7%
O=C(Nc1cncc(-c2ccc3[nH]nc(-c4cc5c(-c6cccc(F)c6)cccc5[nH]4)c3c2)c1)C1CCCCC1 [Compound 23, N-(5-(3-(4-(3-Fluorophenyl)-1H-indol-2-yl)-1H-indazol-5-yl)pyridin-3-yl) cyclohexanecarboxamide]	20.2%	> 10 µM	3.29 µM	> 10 µM		34.2%
Fc1cccc(-c2cccc3[nH]c(-c4n[nH]c5ccc(-c6ccccn6)cc45)cc23)c1 [Compound 28, 3-(4-(3-Fluorophenyl)-1H-indol-2-yl)-5-(pyridin-2-yl)-1H-indazole]	17.1%	> 10 µM	6.82 µM	0.102 µM		
CC(C)CC(=O)Nc1cncc(-c2ccc3[nH]nc(-c4cc5c(-c6ccc(F)cc6)cccc5[nH]4)c3c2)c1 [Compound 30, N-(5-(3-(4-(4-Fluorophenyl)-1H-indol-2-yl)-1H-indazol-5-yl)pyridin-3-yl)-3-methylbutanamide]	38.2%	> 10 µM	2.52 µM	> 10 µM		27.9%
CC(C)(C)C(=O)Nc1cncc(-c2ccc3[nH]nc(-c4cc5c(-c6ccc(F)cc6)cccc5[nH]4)c3c2)c1 [Compound 36, N-(5-(3-(4-(4-Fluorophenyl)-1H-indol-2-yl)-1H-indazol-5-yl)pyridin-3-yl) pivalamide]	50.4%	> 10 µM	3.33 µM	0.277 µM		
O=C(Nc1cncc(-c2ccc3[nH]nc(-c4cc5c(-c6ccc(F)cc6)cccc5[nH]4)c3c2)c1)c1ccccc1 [Compound 39, N-(5-(3-(4-(4-Fluorophenyl)-1H-indol-2-yl)-1H-indazol-5-yl)pyridin-3-yl) benzamide]		3.81 µM	1.26 µM	> 10 µM		48.3%
CN(C)Cc1cncc(-c2ccc3[nH]nc(-c4cc5c(-c6ccc(F)cc6)cccc5[nH]4)c3c2)c1 [Compound 41, 1-(5-(3-(4-(4-Fluorophenyl)-1H-indol-2-yl)-1H-indazol-5-yl)pyridin-3-yl)-N,N-dimethylmethanamine]	10%	> 10 µM	5.75 µM	> 10 µM		22.9%
Fc1ccc(-c2cccc3[nH]c(-c4n[nH]c5ccc(-c6cncc(CN7CCCC7)c6)cc45)cc23)cc1 [Compound 42, 3-(4-(4-Fluorophenyl)-1H-indol-2-yl)-5-(5-(pyrrolidin-1-ylmethyl)pyridin-3-yl)-1H-indazole]	42.4%	> 10 µM	2.09 µM	> 10 µM		47.8%
CC(C)(C)CC(=O)Nc1cncc(-c2ccc3[nH]nc(-c4cc5c(-c6ccc(F)cc6)cccc5[nH]4)c3c2)c1 [Compound 44, N-(5-(3-(4-(4-Fluorophenyl)-1H-indol-2-yl)-1H-indazol-5-yl)pyridin-3-yl)-3,3-dimethylbutanamide]	23.1%	> 10 µM	4.99 µM	> 10 µM		47.9%
CCCC(=O)Nc1cncc(-c2ccc3[nH]nc(-c4cc5c(-c6ccc(F)cc6)cccc5[nH]4)c3c2)c1 [Compound 45, N-(5-(3-(4-(4-Fluorophenyl)-1H-indol-2-yl)-1H-indazol-5-yl)pyridin-3-yl)butyramide]	5.3%	> 10 µM	5.52 µM	> 10 µM		44.6%
Fc1ccc(-c2cccc3[nH]c(-c4n[nH]c5ccc(-c6cncnc6)cc45)cc23)cc1 [Compound 55, 3-(4-(4-Fluorophenyl)-1H-indol-2-yl)-5-(pyrimidin-5-yl)-1H-indazole]	26.3%	> 10 µM	6.11 µM	0.488 µM		
Nc1cncc(-c2ccc3[nH]nc(-c4cc5c(-c6ccccc6F)cccc5[nH]4)c3c2)c1 [Compound 59, 5-(3-(4-(2-Fluorophenyl)-1H-indol-2-yl)-1H-indazol-5-yl)pyridin-3-amine]		1.29 µM	0.603 µM	3.46 µM		
CCNCc1cncc(-c2ccc3[nH]nc(-c4cc5c(-c6ccccc6F)cccc5[nH]4)c3c2)c1 [Compound 62, N-((5-(3-(4-(2-Fluorophenyl)-1H-indol-2-yl)-1H-indazol-5-yl)pyridin-3-yl)methyl)ethanamine]	44.5%	> 10 µM	7.64 µM	9.93 µM		
CC(C)(C)CC(=O)Nc1cncc(-c2ccc3[nH]nc(-c4cc5c(-c6ccccc6F)cccc5[nH]4)c3c2)c1 [Compound 72, N-(5-(3-(4-(2-Fluorophenyl)-1H-indol-2-yl)-1H-indazol-5-yl)pyridin-3-yl)-3,3-dimethylbutanamide]	16.2%	> 10 µM	> 10 µM	> 10 µM	0%	35.3%
O=C(Nc1cncc(-c2ccc3[nH]nc(-c4cc5c(-c6ccccc6F)cccc5[nH]4)c3c2)c1)C1CCCC1 [Compound 78, N-(5-(3-(4-(2-Fluorophenyl)-1H-indol-2-yl)-1H-indazol-5-yl)pyridin-3-yl) cyclopentanecarboxamide]	8.3%	> 10 µM	> 10 µM	> 10 µM	3.7%	54.1%
CCC(=O)Nc1cncc(-c2ccc3[nH]nc(-c4cc5c(-c6cccnc6)cccc5[nH]4)c3c2)c1 [Compound 85, N-(5-(3-(4-(Pyridin-3-yl)-1H-indol-2-yl)-1H-indazol-5-yl)pyridin-3-yl) propionamide]		0.479 µM	0.066 µM	0.204 µM		
c1cncc(-c2ccc3[nH]nc(-c4cc5c(-c6cccnc6)cccc5[nH]4)c3c2)c1 [Compound 88, 5-(Pyridin-3-yl)-3-(4-(pyridin-3-yl)-1H-indol-2-yl)-1H-indazole]	21.9%	> 10 µM	> 10 µM	0.023 µM	17.3%	
CC(C)C(=O)Nc1cncc(-c2ccc3[nH]nc(-c4cc5c(-c6cccnc6)cccc5[nH]4)c3c2)c1 [Compound 93, N-(5-(3-(4-(Pyridin-3-yl)-1H-indol-2-yl)-1H-indazol-5-yl)pyridin-3-yl) isobutyramide]		2.3 µM	1.22 µM	0.034 µM		
c1cncc(-c2cccc3[nH]c(-c4n[nH]c5ccc(-c6cncc(CN7CCCCC7)c6)cc45)cc23)c1 [Compound 99, 5-(5-(Piperidin-1-ylmethyl)pyridin-3-yl)-3-(4-(pyridin-3-yl)-1H-indol-2-yl)-1H-indazole]	6.5%	> 10 µM	> 10 µM	> 10 µM		50.5%
